Measurements from ChEMBL document CHEMBL3616421, “Discovery of novel isatin-dehydroepiandrosterone conjugates as potential anticancer agents” (Bioorg Med Chem Lett, 2015).
Active and inactive are the calls of the source. The rule behind the calls is not given here.

Key:
Assay type in all cases: functional, cell-based
[1] = (§1) Cytotoxicity against human A875 cells assessed as growth inhibition after 72 hrs by MTT assay; conditions: A875, 72 h
HepG2 [2] = assay: Cytotoxicity against human HepG2 cells assessed as growth inhibition after 72 hrs by MTT assay; conditions: for IC50: HepG2, 72 h
[3] = (§2) Cytotoxicity against human HuH7 cells assessed as growth inhibition after 72 hrs by MTT assay; conditions: Huh-7, 72 h
[4] = Cytotoxicity against 5-fluorouracil-resistant human Bel7402 cells assessed as growth inhibition after 72 hrs by MTT assay; conditions: Bel-7402, 72 h
A875 = assay: as §1
HepG2 [5] = assay: Cytotoxicity against human HepG2 cells assessed as decrease in cell level at 10 ug/ml after 48 hrs by inverted microscopic analysis
HepG2 [6] = assay: Cytotoxicity against human HepG2 cells assessed as cell shrinkage at 10 ug/ml after 48 hrs by inverted microscopic analysis
Huh-7 = assay: as §2

SMILES | IC50 [1] | IC50 (HepG2 [2]) | IC50 [3] | IC50 [4] | growth inhibition (GI) (A875) | Activity (HepG2 [5]) | Activity (HepG2 [6]) | growth inhibition (GI) (HepG2 [2]) | growth inhibition (GI) (Huh-7)
C[C@]12CC[C@H](O)CC1=CC[C@@H]1[C@@H]2CC[C@]2(C)/C(=N/Nc3ncccc3Cl)CC[C@@H]12 | > 90 µM | > 90 µM | > 90 µM |  |  |  |  |  | 
C[C@]12CC[C@H](O)CC1=CC[C@@H]1[C@@H]2CC[C@]2(C)/C(=N/Nc3ccccc3)CC[C@@H]12 | > 100 µM | 43.1 µM | 55.4 µM | 29.9 µM |  |  |  |  | 
C[C@]12CC[C@H](O)CC1=CC[C@@H]1[C@@H]2CC[C@]2(C)/C(=N/N=C3\C(=O)Nc4ccc(Br)cc43)CC[C@@H]12 | 14.8 µM | 16.2 µM | 13.9 µM | 5.97 µM | Dose-dependent effect | Active | Active | Dose-dependent effect | Dose-dependent effect
C[C@]12CC[C@H](O)CC1=CC[C@@H]1[C@@H]2CC[C@]2(C)/C(=N/Cc3ccccc3)CC[C@@H]12 | 42.5 µM | 32.6 µM | > 100 µM | > 100 µM |  |  |  |  | 
C[C@]12CC[C@H](O)CC1=CC[C@@H]1[C@@H]2CC[C@]2(C)/C(=N/N=C3\C(=O)Nc4ccccc43)CC[C@@H]12 | 25.2 µM | 13.3 µM | 28.2 µM | 21.8 µM | Dose-dependent effect | Active | Active | Dose-dependent effect | Dose-dependent effect
C[C@]12CC[C@H](O)CC1=CC[C@@H]1[C@@H]2CC[C@]2(C)/C(=N/N=C3\C(=O)Nc4ccc([N+](=O)[O-])cc43)CC[C@@H]12 | 69 µM | 27.4 µM | 30.6 µM | 10.1 µM |  |  |  |  | 
C[C@]12CC[C@H](O)CC1=CC[C@@H]1[C@@H]2CC[C@]2(C)/C(=N/N=C3\C(=O)Nc4cc(F)ccc43)CC[C@@H]12 | 29.6 µM | 19.7 µM | 22.3 µM | 12.8 µM | Dose-dependent effect |  |  | Dose-dependent effect | Dose-dependent effect
C[C@]12CC[C@H](O)CC1=CC[C@@H]1[C@@H]2CC[C@]2(C)/C(=N/N=C3\C(=O)Nc4ccc(I)cc43)CC[C@@H]12 | 43.7 µM | 22.5 µM | > 70 µM | 14.1 µM |  |  |  |  | 
O=c1[nH]cc(F)c(=O)[nH]1 [FLUOROURACIL] | > 150 µM | > 150 µM | > 100 µM | > 700 µM | Dose-dependent effect |  |  | Dose-dependent effect | Dose-dependent effect
CC(C)c1ccc(/N=C2\CC[C@H]3[C@@H]4CC=C5C[C@@H](O)CC[C@]5(C)[C@H]4CC[C@]23C)cc1 | 61.5 µM | 44.3 µM | > 90 µM | > 90 µM |  |  |  |  | 
C[C@]12CC[C@H](O)CC1=CC[C@@H]1[C@@H]2CC[C@]2(C)/C(=N/c3ccccc3)CC[C@@H]12 | 82.7 µM | 63.5 µM | > 100 µM | > 100 µM |  |  |  |  | 
